# From US9062043B2, “Fused tricyclic compounds as serine-threonine protein kinase and PARP modulators” (SENHWA BIOSCIENCES, INC., priority 2006, dated 2015)
# Read-outs that look alike come from different tables or passages of the source.
# Assays:
# Format in all cases: cell-based
# Jurkat = test: Cell proliferation assay, Alamar Blue, Jurkat; settings: Homo sapiens;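 also: cells exposed to compound for about 4 days at 37 °C, then Alamar Blue added and fluorescence read after about 4 h, controls given medium without drug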
# [1] = tested on: HCT-116 human colorectal carcinoma cells; test: Cell proliferation assay, Alamar Blue, HCT-116;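 also: cells exposed to compound for about 4 days, then Alamar Blue added and fluorescence read after about 4 h, medium-only wells as control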
# [2] = tested on: MiaPaca human pancreatic carcinoma cells; test: Cell proliferation assay, Alamar Blue, MiaPaca
# Procedure: (§1) A representative cell-proliferation assay protocol using Alamar Blue dye (stored at 4° C., use 20 ul per well) is described hereafter.
# (§2) c. Plate 4,000-5,000 cells per well in 100 μl of medium and seed into a 96-well plate according to the following plate layout. Add cell culture medium only to wells B10 to B12. Wells B1 to B9 have cells but no compound added.
# (§3) d. Add 100 μl of 2× drug dilution to each well in a concentration shown in the plate layout above. At the same time, add 100 μl of media into the control wells (wells B10 to B12). Total volume is 200 μl/well.
# (§4) e. Incubate four (4) days at 37° C., 5% CO2 in a humidified incubator.
# (§5) f. Add 20 μl Alamar Blue reagent to each well.
# (§6) g. Incubate for four (4) hours at 37° C., 5% CO2 in a humidified incubator.
# (§7) h. Record fluorescence at an excitation wavelength of 544 nm and emission wavelength of 590 nm using a microplate reader.
# (§8) In the assays, cells are cultured with a test compound for approximately four days, the dye then is added to the cells and fluorescence of […] dye is detected after approximately four hours. Different types of cells can be utilized in the assays (e.g., HCT-116 human colorectal carcinoma cells, PC-3 human prostatic cancer cells and MiaPaca human pancreatic carcinoma cells). Anti-proliferative effects of representative compounds are provided hereafter.
# BxPC3 = test: Cell proliferation assay, Alamar Blue, BxPC3; settings: Homo sapiens, BXPC-3; Table 19b
# Procedure: as §2, §3, §4, §5, §6, §7, §8
# PanC1 = test: Cell proliferation assay, Alamar Blue, PanC1; settings: Homo sapiens, PANC-1; Table 19b; read-out: IC50 PanC1
# Procedure: as §1, §2, §3, §4, §5, §6, §7, §8
# [3] = tested on: PC-3 human prostatic cancer cells; test: Cell proliferation assay, Alamar Blue, PC-3
# Procedure: as §1, §2, §3, §4, §5, §6, §7, §8
# Hs578T = test: Cell proliferation assay, Alamar Blue, Hs578T; settings: Homo sapiens, Hs-578T
# H1299 = test: Cell proliferation assay, Alamar Blue, H1299; settings: Homo sapiens, NCI-H1299
# Procedure: as §2, §3, §4, §5, §6, §7, §8
# HT29 = test: Cell proliferation assay, Alamar Blue, HT29; settings: Homo sapiens, HT-29; Table 19b
# Procedure: as §2, §3, §4, §5, §6, §7, §8
# [4] = HCT-116, Table 16, second HCT-116 column
smiles,measurement,setting,value
O=C(O)c1ccc2c(c1)nc(NC1CC1)c1nc(NCc3ccccc3)ncc12 [drawing 1075],IC50,Jurkat; Table 18,8.82 µM
same,IC50,"[1]; HCT-116, Table 18",> 10 µM
same,IC50,"[2]; MIA PaCa-2, Table 18",14.7 µM
C#Cc1cccc(Nc2nc3cc(C(=O)O)ccc3c3cnc(NCC4CCCO4)nc23)c1 (centres unmarked) [drawing 1063],IC50,Jurkat; Table 18,2.04 µM
same,IC50,"[1]; HCT-116, Table 18",> 10 µM
same,IC50,"[2]; MIA PaCa-2, Table 18",0.45 µM
C#Cc1cccc(Nc2nc3cc(C(=O)O)ccc3c3cnc(NCC4CC4)nc23)c1 [drawing 1064],IC50,Jurkat; Table 18,0.42 µM
same,IC50,"[1]; HCT-116, Table 18",> 10 µM
same,IC50,"[2]; MIA PaCa-2, Table 18",0.48 µM
O=C(O)c1ccc2c(c1)nc(NCc1ccccc1)c1ccncc12 [drawing 1218],IC50,BxPC3,> 50 µM
same,IC50,PanC1,> 50 µM
Clc1cccc(Nc2nc3cc(-c4nnn[nH]4)ccc3c3sccc23)c1,IC50,"[3]; Table 16, read-out: IC50 PC3",12 µM
same,IC50,Hs578T; Table 16,5.23 µM
same,IC50,H1299; Table 16,15.2 µM
same,IC50,Jurkat; Table 16,8.89 µM
same,IC50,"[2]; MIA PaCa-2, Table 16",> 10 µM
O=C(O)c1ccc2c(c1)nc(NC1CC1)c1nc(Nc3ccccc3)ncc12 [drawing 1076],IC50,Jurkat; Table 18,4.6 µM
same,IC50,"[1]; HCT-116, Table 18",> 10 µM
same,IC50,"[2]; MIA PaCa-2, Table 18",2.44 µM
O=C(O)c1ccc2c(c1)nc(NCc1cccnc1)c1nc(NC3CC3)ncc12 [drawing 1276],IC50,BxPC3,> 50 µM
same,IC50,PanC1,> 50 µM
O=C(O)c1ccc2c(c1)nc(NC1CC1)c1nc(NCc3ccccc3)ncc12 [drawing 1268],IC50,BxPC3,10.9 µM
same,IC50,PanC1,25.8 µM
COC(=O)c1ccc2c(c1)nc(NC1CC1)c1nc(SC)ncc12 [drawing 1292],IC50,BxPC3,7.39 µM
same,IC50,PanC1,> 50 µM
O=C(O)c1ccc2c(c1)nc(N1CCOCC1)c1nc(NC3CC3)ncc12 [drawing 1085],IC50,Jurkat; Table 18,3.67 µM
same,IC50,"[2]; MIA PaCa-2, Table 18",> 50 µM
CCOc1ncc2c(n1)c(NC1CC1)nc1cc(C(=O)O)ccc12 [drawing 1266],IC50,BxPC3,48.9 µM
same,IC50,PanC1,> 50 µM
O=C(O)c1ccc2c(c1)nc(N1CCOCC1)c1nc(NC3CC3)ncc12 [drawing 1278],IC50,BxPC3,> 50 µM
same,IC50,PanC1,> 50 µM
Nc1ncc2c(n1)c(NC1CC1)nc1cc(C(=O)O)ccc12 [drawing 1295],IC50,BxPC3,43.8 µM
same,IC50,PanC1,> 50 µM
O=C(O)c1ccc2c(c1)nc(Nc1cncc(C3CC3)c1)c1ccncc12,IC50,BxPC3,38.1 µM
same,IC50,PanC1,> 50 µM
O=C(O)c1ccc2c(c1)nc(NC1CC1)c1nc(NC3CC3)ncc12 [drawing 1267],IC50,BxPC3,2.59 µM
same,IC50,PanC1,2.6 µM
O=C(O)c1ccc2c(c1)nc(NC1CC1)c1ccncc12 [drawing 1290],IC50,BxPC3,49 µM
same,IC50,PanC1,> 50 µM
CN(C)CCNc1nc2cc(C(=O)O)ccc2c2sccc12,IC50,"[3]; Table 16, read-out: IC50 PC3",> 50 µM
same,IC50,Hs578T; Table 16,> 50 µM
same,IC50,H1299; Table 16,8.9 µM
same,IC50,"[1]; HCT-116, Table 16, first HCT-116 column",> 10 µM
O=C(c1cccc(Nc2nc3cc(-c4nnn[nH]4)ccc3c3sccc23)c1)N1CCOCC1,IC50,[1]; [4],> 10 µM
same,IC50,"[2]; MIA PaCa-2, Table 16",> 10 µM
O=C(O)c1ccc2c(c1)nc(Nc1cc(F)cc(C(F)(F)F)c1)c1ccsc12,IC50,[1]; [4],> 10 µM
same,IC50,"[2]; MIA PaCa-2, Table 16",> 10 µM
Brc1cccc(Nc2nc3cc(-c4nnn[nH]4)ccc3c3sccc23)c1,IC50,[1]; [4],> 10 µM
same,IC50,"[2]; MIA PaCa-2, Table 16",> 10 µM
O=C(O)c1ccc2c(c1)nc(NCCc1ccccc1)c1ccncc12 [drawing 1007],IC50,"[3]; Table 18, read-out: IC50 PC3",23.6 µM
same,IC50,Hs578T; Table 18,16.5 µM
same,IC50,H1299; Table 18,21 µM
same,IC50,"[1]; HCT-116, Table 18",> 10 µM
same,IC50,"[2]; MIA PaCa-2, Table 18",5.08 µM
COC(=O)c1ccc2c(c1)nc(NC1CC1)c1nc(SCc3ccccc3Cl)ncc12 [drawing 1069],IC50,Jurkat; Table 18,4.67 µM
same,IC50,"[2]; MIA PaCa-2, Table 18",32.4 µM
O=C(O)c1ccc2c(c1)nc(NCCc1ccccc1)c1ccncc12 [drawing 1206],IC50,HT29,46.9 µM
O=C(O)c1ccc2c(c1)nc(Nc1cncc(C3CC3)c1)c1ncncc12,IC50,Jurkat; Table 18,> 50 µM
same,IC50,"[1]; HCT-116, Table 18",> 10 µM
Cc1cc(Nc2ncc3c(n2)c(Nc2ccc(F)c(Cl)c2)nc2cc(C(=O)O)ccc23)[nH]n1 [drawing 1093],IC50,"[1]; HCT-116, Table 18",> 10 µM
same,IC50,"[2]; MIA PaCa-2, Table 18",18.2 µM
N#Cc1cc(F)cc(Nc2nc3cc(C(=O)O)ccc3c3sccc23)c1,IC50,[1]; [4],> 10 µM
same,IC50,"[2]; MIA PaCa-2, Table 16",> 10 µM
O=C(O)c1ccc2c(c1)nc(NCc1ccccc1)c1ccncc12 [drawing 1020],IC50,"[1]; HCT-116, Table 18",> 10 µM
same,IC50,"[2]; MIA PaCa-2, Table 18",31.2 µM
